Data on six compounds can be found in patent US11492342B2, “Crystalline forms of piperazine-1,4-diylbis((6-(1H-benzo[d]imidazo-2-yl)pyridin-2yl)methanone)” (Landos Biopharma, Inc., priority 2020, dated 2022).

In general, Cmax refers to the highest concentration seen after dosing.

Where two headings read alike, the source gives them in different places.

The nature of data set [1]: Solid form change on drying, followed by XRPD. Format: physicochemical.
Description: XRPD analysis was carried out, scanning the samples between 3 and 35° 2θ. The material was gently ground to release any agglomerates and loaded onto a multi-well plate with polymer film to support the sample. The multi-well plate was then placed into the diffractometer and analyzed using Cu K radiation (α1λ=1.54060 Å; α2=1.54443 Å; β=1.39225 Å; α1:α2 ratio=0.5) running in transmission mode (step size 0.0130° 2θ, step time 18.87 s) using 40 kV/40 mA generator settings. Data were visualized and analyzed.
The nature of data set [2]: Pharmacokinetic analysis: oral dosing to mice, BT-11 in plasma and colonic tissue by LC/MS/MS. The note with it: for Colon BT-11 Concentration / Plasma BT-11 Cmax: oral; for Colon BT-11 Concentration: colon 4 hours post-dose. The protocol: BT-11 Form 0, Form 1, and Form 2 were orally dosed to male and female mice (n=4) to provide 8 mg/kg. Plasma was collected at 1, 2, and 4 hours post-dose. At 4 hours post-dose, colons were excised and washed in PBS. Tissues were then homogenized by Fast-Prep24 instrument. Plasma and tissue homogenate were prepared by acetonitrile-based liquid-liquid extraction. BT-11 concentrations were determined by LC/MS/MS analysis using a linear calibration curve.

A short description of data set [3]: Dynamic vapor sorption (DVS). Format: physicochemical. The note with it: for re-crystallization or form change during the DVS experiment: DVS kinetic plot. The protocol: Approximately, 10 mg of sample was placed into a mesh vapor sorption balance pan and loaded into a DVS-1/DVS Intrinsic/DVS Advantage dynamic vapor sorption balance by Surface Measurement Systems. The sample was subjected to a ramping profile from 40-90% relative humidity (RH) at 10% increments, maintaining the sample at each step until a stable weight had been achieved (dm/dt 0.004%, minimum step length 30 min, maximum step length 500 min) at 25° C. After completion of the sorption cycle, the sample was dried using the same procedure to 0% RH and then a second sorption cycle back to 40% RH. Two cycles were performed. The weight change during the sorption/desorption cycles were plotted, allowing for the hygroscopic nature of the sample to be determined. XRPD analysis was then carried out on any solid retained.

Data set [4] in a line: Particle size distribution (PSD) analysis. The data set is classed as physicochemical. The protocol:
Particle size distribution analysis was carried out using a particle size analyzer with a dispersion cell. Approximately 50 mg of sample was weighed into a 20 mL scintillation vial and 10 mL of dispersant was added. The sample was sonicated for 30 seconds, aspirated with a glass pipette, and then added to the dispersion unit. The sample was circulated for 30 seconds to allow the dispersion to stabilize.

For data set [5] the following is noted: cited from earlier work.
Data set [6] concerns TNFα production in the gastrointestinal tract, fecal calprotectin. The note with it: mice; cited from earlier work.
Data set [7] relates to CD25/STAT5 signaling and late-stage glycolysis. To be noted: murine cells; cited from earlier work.
The test system is the same in data set [8]. To be noted: human cells; cited from earlier work.
[9] abbreviates: mice, 8 mg/kg, plasma collected at 1, 2 and 4 hours post-dose.
Where [10] appears, read: DVS, 25° C., listed as BT-11 Form 1.
The mark [11] stands for this setting: DVS, 25° C., listed as BT-11 Form 2.
The mark [12] stands for this setting: DVS, 25° C., listed as BT-11 Form 3.

On to `Cl.Cl.O=C(c1cccc(-c2nc3ccccc3[nH]2)n1)N1CCN(C(=O)c2cccc(-c3nc4ccccc4[nH]3)n2)CC1` [Form 7, piperazine-1,4-diylbis((6-(1H-benzo[d]imidazo-2-yl)pyridine-2-yl)methanone)], for which the form change post-drying entry in data set [1] is given as “convert to Form 2”.
`Cl.Cl.O=C(c1cccc(-c2nc3ccccc3[nH]2)n1)N1CCN(C(=O)c2cccc(-c3nc4ccccc4[nH]3)n2)CC1` [Form 1, piperazine-1,4-diylbis((6-(1H-benzo[d]imidazo-2-yl)pyridine-2-yl)methanone)] came in with a Colon BT-11 Concentration in data set [2] (mice, 8 mg/kg) of 3000 ng/g. In addition, the “Plasma BT-11 Cmax” value in data set [2] (setting [9]) amounted to 177 ng/mL. Also, the “re-crystallization or form change during the DVS experiment” value in data set [3] (listed as BT-11 Form 1) is “no evidence of re-crystallization or form change”. Moreover, in data set [3] (setting [10]), the hygroscopic nature result is recorded as “hygroscopic”, the “total mass increase up to 90% RH” value came to 24% and the “total mass lost below 20% RH” value stood at 6.0%. In data set [4] (listed as BT-11 Form 1), this compound displayed a d10 of 0.1 μm, a d50 of 0.5 μm and a d90 of 40.8 μm.
Consider `Cl.Cl.O=C(c1cccc(-c2nc3ccccc3[nH]2)n1)N1CCN(C(=O)c2cccc(-c3nc4ccccc4[nH]3)n2)CC1` [Form 2, piperazine-1,4-diylbis((6-(1H-benzo[d]imidazo-2-yl)pyridine-2-yl)methanone)], for which the Colon BT-11 Concentration in data set [2] (mice, 8 mg/kg) stood at 4470 ng/g. The “Plasma BT-11 Cmax” value in data set [2] (setting [9]) was found to be 41 ng/mL. Further, in data set [2] (mouse, in vivo, po), the “confinement to the gastrointestinal tract after oral administration” value was “increased confinement to the gastrointestinal tract”. In addition, in data set [3] (listed as BT-11 Form 2), the “re-crystallization or form change during the DVS experiment” value is reported as “no evidence of re-crystallization or form change”. Also, in data set [3] (DVS, 25° C., 2nd cycle), the “mass uptake on 2nd cycle” value was 0.23%. In data set [3] (setting [11]), the hygroscopic nature result is “slightly hygroscopic” and the “total mass increase up to 90% RH” value is given as 0.32%. Further, in data set [4] (listed as BT-11 Form 2), the d10 is recorded as 18.2 μm, the d50 amounted to 31.9 μm and the d90 came to 83.9 μm.
In the case of `O=C(c1cccc(-c2nc3ccccc3[nH]2)n1)N1CCN(C(=O)c2cccc(-c3nc4ccccc4[nH]3)n2)CC1` [piperazine-1,4-diylbis((6-(1H-benzo[d]imidazo-2-yl)pyridine-2-yl)methanone)], the “systemic absorption when orally administered” value in data set [5] is given as “poorly systemically absorbed”. Besides, in data set [6], the fecal calprotectin levels result was “reduces”. In data set [6], the “local TNFα production in the gastrointestinal tract” value is listed as “reduces”. For the same compound, the “CD25/STAT5 signaling and late-stage glycolysis” value in data set [7] and in data set [8] was “induces changes” each time.
Turning to `O=C(c1cccc(-c2nc3ccccc3[nH]2)n1)N1CCN(C(=O)c2cccc(-c3nc4ccccc4[nH]3)n2)CC1` [Form 0, piperazine-1,4-diylbis((6-(1H-benzo[d]imidazo-2-yl)pyridine-2-yl)methanone)], the Cmax in data set [2] (both, mouse, plasma, po, 8 mg/kg, Plasma BT-11 Cmax, mice, plasma collected at 1, 2 and 4 hours post-dose) amounted to 186 ng/mL. Also, in data set [2] (mice, 8 mg/kg), the Colon BT-11 Concentration was found to be 1280 ng/g. In data set [4], this compound displayed a d10 of 0.2 μm, a d50 of 6.3 μm and a d90 of 19.8 μm.
`Cl.Cl.O=C(c1cccc(-c2nc3ccccc3[nH]2)n1)N1CCN(C(=O)c2cccc(-c3nc4ccccc4[nH]3)n2)CC1` [Form 3, piperazine-1,4-diylbis((6-(1H-benzo[d]imidazo-2-yl)pyridine-2-yl)methanone)]: the “re-crystallization or form change during the DVS experiment” value in data set [3] (listed as BT-11 Form 3) is “No evidence of re-crystallization or form change”. For the same compound, in data set [3] (DVS, 25° C.), the “total moisture uptake due to surface moisture” value was found to be 2.8%. Further, in data set [3] (setting [12]), the “total mass increase up to 90% RH” value amounted to 7.8% and the “total mass lost below 20% RH” value is on record as 5.0%.
